Ten compounds from patent US20230167093A1, “COMPOUNDS AND METHODS FOR MODULATING SPLICING” (REMIX THERAPEUTICS INC., priority 2020, published 2023) can be followed below.

Format in all cases: cell-based
One experiment deals with HTT AJ mRNA. Nature of the experiment: RT-qPCR splicing assay, HTT alternative junction (AJ) mRNA increase. The conditions noted are these: A673 or K562 cells, 24 hours compound treatment, top dose 10 uM; concentration having 50% response in AJ increase. As to the method:
(§1) Compounds described herein were used to modulate RNA transcript abundance in cells. The expression of a target mRNA was measured by detecting the formation of an exon-exon junction in the canonical transcript (CJ). A compound mediated exon-inclusion event was detected by observing an increase in formation of a new junction with an alternative exon (AJ). Real-time qPCR assays were used to detect these splicing switches and interrogate the potency of various compounds towards different target genes. A high-throughput real time quantitative PCR (RT-qPCR) assay was developed to measure these two isoforms of the mRNA (CJ and AJ) for an exemplary gene, HTT, together with a control housekeeping gene, GAPDH or GUSB or PPIA, used for normalization. Briefly, the A673 or K562 cell line was treated with various compounds described herein (e.g., compounds of Formula (I) or (II)). After treatment, the levels of the HTT mRNA targets were determined from each sample of cell lysate by cDNA synthesis followed by qPCR.
(§2) The A673 cell line was cultured in DMEM with 10% FBS. Cells were diluted with full growth media and plated in a 96-well plate (15,000 cells in 100 ul media per well). The plate was incubated at 37° C. with 5% CO2 for 24 hours to allow cells to adhere. An 11-point 3-fold serial dilution of the compounds was made in DMSO then diluted in media in an intermediate plate. Compounds were transferred from the intermediate plate to the cell plate with the top dose at a final concentration of 10 uM in the well. Final DMSO concentration was kept at or below 0.25%. The cell plate was returned to the incubator at 37° C. with 5% CO2 for an additional 24 hours.
(§3) The K562 cell line was cultured in IMDM with 10% FBS. For K562, cells were diluted with full growth media and plated in either a 96-well plate (50,000 cells in 50 uL media per well) or a 384-well plate (8,000-40,000 cells in 45 uL media per well). An 11-point 3-fold serial dilution of the compounds were made in DMSO then diluted in media in an intermediate plate. Compound was transferred from the intermediate plate to the cell plate with the top dose at a final concentration of 10 uM in the well. Final DMSO concentration was kept at or below 0.25%. Final volume was 100 uL for 96-well plate and 50 uL for 384-well plate. The cell plate was then placed in an incubator at 37° C. with 5% CO2 for 24 hours.
(§4) The cells were then gently washed with 50 uL-100 uL cold PBS before proceeding to addition of lysis buffer. 30 uL-50 uL of room temperature lysis buffer with DNAse I (and optionally RNAsin) was added to each well. Cells were shaken/mixed thoroughly at room temperature for 5-10 minutes for lysis to take place and then 3 uL-5 uL of room temperature stop solution was added and wells were shaken/mixed again. After 2-5 minutes, the cell lysate plate was transferred to ice for RT-qPCR reaction setup. The lysates could also be frozen at −80° C. for later use.
(§5) In some cases, a direct lysis buffer was used. An appropriate volume of 3× lysis buffer (10 mM Tris, 150 mM NaCl, 1.5%-2.5% Igepal and 0.1-1 U/uL RNAsin, pH 7.4) was directly added to either K562 or A673 cells in media and mixed by pipetting 3 times. The plates were then incubated at room temperature with shaking/rocking for 20-50 minutes to allow for lysis to take place. After this time, the cell lysate plate was transferred to ice to set up for the RT-qPCR reactions. The lysates could also be frozen at −80° C. for later use.
(§6) To set up 10 uL RT-qPCR reactions, cell lysates were transferred to 384-well qPCR plates containing the master mix according to the table below. The plates were sealed, gently vortexed, and spun down before the run. The volumes were adjusted accordingly in some instances where the reaction was carried in 20 uL. The table below summarizes the components of the RT-qPCR reactions:
(§7) The RT-qPCR reaction was performed using a QuantStudio (ThermoFisher) under the following fast cycling conditions. […]

The subject of experiment [1] is HTT CJ mRNA. Description: RT-qPCR splicing assay, HTT canonical junction (CJ) mRNA decrease. The conditions noted are these: A673 or K562 cells, 24 hours compound treatment, top dose 10 uM; concentration having 50% response in CJ decrease. As to the method:
as §1, §2, §3, §4, §5, §6, §7
Background: Real-time PCR tracks product formation cycle by cycle.

Experiment [2] relates to HTT CJ mRNA. Description: Gene panel canonical junction qPCR assay, HTT. The conditions noted are these: protocol as above, concentration having 50% response in CJ decrease, read-out: HTT IC50 (decrease in CJ mRNA levels). As to the method:
as §1, §2, §3, §4, §5, §6, §7

Another experiment relates to SMN2 CJ mRNA. Description: Gene panel canonical junction qPCR assay, SMN2. The following applies: protocol as above, concentration having 50% response in CJ decrease, read-out: SMN2 IC50 (decrease in CJ mRNA levels). As to the method:
as §1, with “After treatment, the levels of the HTT mRNA targets were determined from each sample of cell lysate by cDNA synthesis followed by qPCR.” left out
as §2, §3, §4, §5, §6
The RT-qPCR reaction was performed using a QuantStudio (ThermoFisher) under the following fast cycling conditions. All samples and standards were analyzed at least in duplicate. […]

The next experiment deals with Target C CJ mRNA. Nature of the experiment: Gene panel canonical junction qPCR assay, Target C. The conditions noted are these: protocol as above, concentration having 50% response in CJ decrease, read-out: Target C IC50 (decrease in CJ mRNA levels). On the procedure: as §1, §2, §3, §4, §5, §6, §7

By AC50 is commonly meant the concentration at which the activity in the assay is half-maximal. A high value points to activity only at high concentration. By IC50 is commonly meant the concentration that gives 50% inhibition. Regarding `CN1CCC(Nc2ccc3ncn(-c4ccc5nn(C)cc5c4)c(=O)c3c2)CC1` [Compound 171, 3-(2-methyl-2H-indazol-5-yl)-6-((1-methylpiperidin-4-yl)amino)quinazolin-4(3H)-one], the half-maximal activity concentration (AC50) with HTT AJ mRNA and in the experiment with HTT CJ mRNA [1] was more than 10 µM throughout. The IC50 in the experiment on HTT CJ mRNA [2], in the experiment with SMN2 CJ mRNA and in the experiment on Target C CJ mRNA was more than 10 µM throughout.
`CN1CCN(c2ccc3ncn(-c4ccc5nn(C)cc5c4)c(=O)c3c2)CC1` [Compound 154, 3-(2-methyl-2H-indazol-5-yl)-6-(4-methylpiperazin-1-yl)quinazolin-4(3H)-one]: the half-maximal activity concentration (AC50) with HTT AJ mRNA and in the experiment with HTT CJ mRNA [1] was more than 10 µM in each case. Also, the IC50 in the experiment on HTT CJ mRNA [2] and in the experiment on SMN2 CJ mRNA was more than 10 µM in each case.
Take `Cn1cc2cc(-n3cnc4ccc(N5CCNCC5)cc4c3=O)ccc2n1` [Compound 155, 3-(2-methyl-2H-indazol-5-yl)-6-(piperazin-1-yl)quinazolin-4(3H)-one]: the AC50 in the experiment on HTT AJ mRNA and in the experiment with HTT CJ mRNA [1] was more than 10 µM in each case. Moreover, the IC50 in the experiment on HTT CJ mRNA [2] and with SMN2 CJ mRNA was more than 10 µM each time.
Take `Cc1cc(-c2ccc3c(=O)[nH]c(N4CCNCC4)nc3c2)cc2cn(C)nc12` [Compound 211, 7-(2,7-dimethyl-2H-indazol-5-yl)-2-(piperazin-1-yl)quinazolin-4(3H)-one]: the AC50 in the experiment on HTT AJ mRNA and with HTT CJ mRNA [1] was more than 10 µM in each case. Moreover, the IC50 in the experiment on HTT CJ mRNA [2], with SMN2 CJ mRNA and in the experiment on Target C CJ mRNA was more than 10 µM in each case.
For the compound `Cc1cn2cc(-n3cnc4ccc(N(C)C5CCNCC5)cc4c3=O)cc(F)c2n1` [Compound 200, 3-(8-fluoro-2-methylimidazo[1,2-a]pyridin-6-yl)-6-(methyl(piperidin-4-yl)amino)quinazolin-4(3H)-one], the AC50 with HTT AJ mRNA and in the experiment on HTT CJ mRNA [1] was more than 10 µM in each case. Also, the half-maximal inhibitory concentration (IC50) with HTT CJ mRNA [2], in the experiment with SMN2 CJ mRNA and in the experiment with Target C CJ mRNA was more than 10 µM throughout.
For `CN(c1ccc2ncn(-c3cc(F)c4nn(C)cc4c3)c(=O)c2c1)C1CCNCC1` [Compound 198, 3-(7-fluoro-2-methyl-2H-indazol-5-yl)-6-(methyl(piperidin-4-yl)amino)quinazolin-4(3H)-one], the AC50 with HTT AJ mRNA and in the experiment on HTT CJ mRNA [1] was more than 10 µM in each case. The 50% inhibitory concentration (IC50) in the experiment with HTT CJ mRNA [2], in the experiment with SMN2 CJ mRNA and with Target C CJ mRNA was more than 10 µM in each case.
As for `Cn1cc2cc(-n3cnc4ccc(N5CCNCC5)cc4c3=O)cc(F)c2n1` [Compound 196, 3-(7-fluoro-2-methyl-2H-indazol-5-yl)-6-(piperazin-1-yl)quinazolin-4(3H)-one], the AC50 with HTT AJ mRNA and in the experiment with HTT CJ mRNA [1] was more than 10 µM throughout. Besides, the IC50 in the experiment on HTT CJ mRNA [2], in the experiment on SMN2 CJ mRNA and with Target C CJ mRNA was more than 10 µM in each case.
As to `Cc1cn2cc(-n3cnc4ccc(N5CCN(C)CC5)cc4c3=O)cc(F)c2n1` [Compound 197, 3-(8-fluoro-2-methylimidazo[1,2-a]pyridin-6-yl)-6-(4-methylpiperazin-1-yl)quinazolin-4(3H)-one], the half-maximal activity concentration (AC50) in the experiment with HTT AJ mRNA and in the experiment on HTT CJ mRNA [1] was 1 to 10 µM each time. In addition, the half-inhibitory concentration (IC50) in the experiment with HTT CJ mRNA [2], with SMN2 CJ mRNA and in the experiment on Target C CJ mRNA was 1 to 10 µM each time.
For `Cn1cc2cc(-n3cnc4ccc(C5=CCNCC5)cc4c3=O)ccc2n1` [Compound 151, 3-(2-methyl-2H-indazol-5-yl)-6-(1,2,3,6-tetrahydropyridin-4-yl)quinazolin-4(3H)-one], the concentration at half-maximal activity (AC50) in the experiment with HTT AJ mRNA and with HTT CJ mRNA [1] was more than 10 µM each time. Also, the 50% inhibitory concentration (IC50) in the experiment on HTT CJ mRNA [2] and in the experiment on SMN2 CJ mRNA was more than 10 µM throughout.
Take `Cc1cn2nc(-n3cnc4ccc(N5CCNCC5)cc4c3=O)cc(C)c2n1` [Compound 201, 3-(2,8-dimethylimidazo[1,2-b]pyridazin-6-yl)-6-(piperazin-1-yl)quinazolin-4(3H)-one]: the AC50 with HTT AJ mRNA and in the experiment on HTT CJ mRNA [1] was more than 10 µM each time. The concentration for half-maximal inhibition (IC50) in the experiment with HTT CJ mRNA [2], in the experiment on SMN2 CJ mRNA and in the experiment with Target C CJ mRNA was more than 10 µM throughout.
